Data set [1] has as its system intracellular forms of T. cruzi (Tulahuen strain). The experiment in a line: Activity against intracellular forms of T. cruzi (Tulahuen-β gal strain) in infected L929 cell lines, CPRG readout. The class given is cell-based, Trypanosoma cruzi. The conditions noted are these: for SI (Selectivity Index), intracellular forms: LC50 L929 / EC50 intracellular forms; for inhibition at 10 µM / EC50: Trypanosoma cruzi. The protocol:
The crude extracts and the resulting fractions were evaluated following a well standardized protocol of phenotypic analysis for novel drug candidates for CD [25]. The first approach was the screening against intracellular amastigotes (Tulahuen-β gal strain, DTU VI) using a fixed concentration of 10 µg/mL, which corresponds to the 90% effective concentration (EC90)value of the reference drug (Bz) for CD (Table 1). The leaves fraction using dichloromethane from Aureliana fasciculata var. fasciculata (AFfPD) sterilized T. cruzi infection in L929 cell lines, leading to 100% of infection reduction. […] Natural products from fruit pulp of C. cujete have no trypanocidal effect at a concentration of 10 µg/mL.
Culture derived trypomastigotes of Tulahuen strain (DTU VI), transfected with the β-galactosidase gene from Escherichia coli, were collected from the supernatant of previously infected L929 fibroblasts. Trypomastigotes were used to infect L929 cultures at a ratio of 10:1 (parasites/host cell) to determine activity against intracellular forms. After 2 h of interaction, the cultures were washed for the removal of remaining parasites and incubated for 48 h to ensure the establishment of the infection. On the first set of assays, the compounds were added in a fixed concentration (10 µg/mL or 10 µM for the extracts and purified fractions, respectively) that corresponds to EC90 of Bz. The non-infected cells (controls) were treated with DMSO and Bz and were also evaluated. The compounds that reached the same or higher activity than Bz were later evaluated in assays with increasing concentrations (serially diluted (7-fold): 0–50 µg/mL for extracts and fractions and 0–50 µM for purified compounds and Bz) for the determination of the EC50 and EC90 values (minimal concentration able to reduce to 50% and 90% of the infection index in cultures). In both assays the cultures were maintained at 37 °C for 96 h to enable the calculation of the inhibition percentage on the infection. Thereafter, 500 μM of substrate CPRG (chlorophenol red-β-D-galactopiranosideo) in 0.5% Nonidet P40 (Sigma-Aldrich, St. Louis, MO, United States) were added to the in vitro system. The plates were incubated for 18 h at 37 °C and, following, the absorbance was measured at 570 nm. […] All the assays were conducted in duplicate at least three times.

In data set [2] the test system is bloodstream trypomastigotes of T. cruzi (Y strain). Kind of data set: Activity against bloodstream trypomastigotes (Y strain), light microscopy count of live parasites. The format is cell-based, Trypanosoma cruzi. To be noted: for SI (Selectivity Index), bloodstream trypomastigotes: LC50 cardiac cell cultures / EC50 bloodstream trypomastigotes. The protocol:
In addition, the activity of both natural products was also evaluated against bloodstream trypomastigotes (BT), another relevant form of T. cruzi in mammalian hosts (Table 2). […] As cardiomyopathy is one of the main chronic symptoms of CD, next, the cardiotoxicity profile was assessed using primary cultures of mouse cardiac cells (CC) incubated with increasing concentration of both biomolecules and Bz. After […] of incubation with both extracts, no evident cardiac alterations related to cellular density and morphology was observed by light microscopy.
Bloodstream trypomastigotes (BT) of the T. cruzi Y strain (DTU II) were obtained by cardiac punction from Swiss Webster mice during the parasitemia peak and the purified parasites were resuspended in Dulbecco’s modified Eagle medium (DMEM) (Cultilab) supplemented with 10% fetal bovine serum (FBS).

The next data set can be described thus: in vitro. The class given is cell-based. The protocol:
(§1) Primary cardiac cell cultures (CC) were obtained from Swiss Webster mice embryo hearts (18 gestation days) as described by Meirelles et al. and were used for toxicity assays. After purification, the cardiac cells were seeded (0.5 × 10^5 cells/well) in 96 wells microplates previously coated with 0.01% gelatin. The cardiac cultures were maintained in Dulbecco’s Modified Eagle’s Medium supplemented with 6% of FBS, 2.5 mM CaCl2, 1 mM L-glutamine, 1mM penicillin and 2% chicken embryo extract. Mice fibroblast of the line NTCL clone 929 (L929) were used for toxicity and anti-T. cruzi activity assays. L929 cells were seeded (4 × 10^3 cells/well) in 96 well microplates and kept in RPMI-1640 medium (Sigma-Aldrich, Missouri, EUA) supplemented with 10% FBS, 1% L-glutamine and 1% penicillin. The cell cultures were maintained at 37 °C at 5% CO2.
(§2) Cell viability was assessed using PrestoBlue (for assay with CC) and AlamarBlue (for assays with L929) with fluorescence and absorbance readouts (560–590 and 570–600 nm, respectively) in a spectrophotometer (Tunable microplates reader VersaMax; Molecular Devices). Additionally, cell morphology aspects were evaluated in a light microscope, as well as the contractability, density and cytoplasmic vacuolization. Cell viability rates were then determined by the LC50 values that correspond to the compound concentration able to reduce in 50% the viability of the cell population.

Another data set concerns L929 cell lines. The experiment in a line: in vitro. The class given is cell-based. The protocol: as §1, §2
Data set [3] in a line: Cardiotoxicity, primary cardiac cell cultures (PrestoBlue, light microscopy). The class given is cell-based. The conditions noted are these: Swiss Webster, mouse. The protocol: as §1, §2
For data set [4], the system named is L. amazonensis infected macrophages. Set-up: method as in PMID 30513673. To be noted: cited from earlier work; for EC50: read-out: EC50 upon infected macrophages.
In data set [5] the test system is promastigotes of L. amazonensis. Set-up: method as in PMID 30513673. The conditions noted are these: cited from earlier work.
The subject of data set [6] is cell-derived trypomastigotes. Set-up: method as in PMID 28177047. The conditions noted are these: cited from earlier work.
The mark [7] stands for this setting: TULAHUEN, L929, 96 h, read-out: % of Infection Reduction, 10 μM, 96 h of incubation, L929 cell line infected with Tulahuen strain.
[8] abbreviates: TULAHUEN, L929, 96 h, read-out: EC50 intracellular forms.
Where [9] appears, read: Trypanosoma cruzi, 2 h, read-out: EC50 bloodstream trypomastigotes, 2 h, Y strain.
Where [10] appears, read: Trypanosoma cruzi, 24 h, read-out: EC50 bloodstream trypomastigotes, 24 h, Y strain.
[11] abbreviates: Trypanosoma cruzi, 24 h, read-out: EC90 bloodstream trypomastigotes.
[12] abbreviates: TULAHUEN, L929, 96 h, 10 μM, 96 h of incubation, L929 cell line infected with Tulahuen strain, read-out: % of Infection Reduction.
The mark [13] stands for this setting: 96 h, Tulahuen strain, L929 host cells, read-out: EC50 intracellular forms.
Setting [14] is: Trypanosoma cruzi, 2 h, Y strain, read-out: EC50 bloodstream trypomastigotes.
[15] abbreviates: Trypanosoma cruzi, 24 h, Y strain, read-out: EC50 bloodstream trypomastigotes.
Where [16] appears, read: Trypanosoma cruzi, 24 h, Y strain, read-out: EC90 bloodstream trypomastigotes.

In brackets after ≈: the same amount, converted by molar mass. Several values for one entry are separate records, joined by “and”; a condition that tells them apart may be missing. Identical values can stand only once. Like-named read-outs stand apart in the source and are kept apart here. A value given as a limit tells only on which side of the number the result lay.

One may read the EC50 as the concentration giving half of the maximal effect. In general, EC90 refers to the concentration at which the effect reaches the 90% level. As to `O=C(Cn1ccnc1[N+](=O)[O-])NCc1ccccc1` [Bz, Benznidazole, reference compound], the “SI (Selectivity Index), intracellular forms” value in data set [1] (96 h, µM data) is >66.6; in data set [1] (96 h, μg/mL data), > 52. Moreover, the inhibition at 10 µM in data set [1] (setting [7]) was determined as 92 ± 7%. The 50% effective concentration (EC50) in data set [1] (setting [8]) is 3 ± 0.6 µM; in data set [1] (TULAHUEN, L929, 96 h, read-out: EC50 intracellular forms (Tulahuen strain)), 3.8 ± 1.8 µg/mL; in data set [2] (Trypanosoma cruzi, 2 h, read-out: EC50 bloodstream trypomastigotes (Y strain), 2 h), > 50 µg/mL; in data set [2] (setting [9]), > 50 µM; in data set [2] (Trypanosoma cruzi, 24 h, read-out: EC50 bloodstream trypomastigotes (Y strain), 24 h), 10.2 ± 0.3 µg/mL; in data set [2] (setting [10]), 13.1 ± 3.9 µM. Moreover, the “% of Infection Reduction after 96 h of Incubation” value in data set [1] (fixed concentration of 10 µg/mL, L929 cell lines infected with Tulahuen strain, 96 h) turned out to be 90.5 ± 5.7%. Also, the “SI (Selectivity Index), bloodstream trypomastigotes” value in data set [2] (24 h, µM data) is >57.1; in data set [2] (24 h, μg/mL data), >83. Besides, the EC90 in data set [2] (Trypanosoma cruzi, 2 h, read-out: EC90 bloodstream trypomastigotes (Y strain)) is > 50 µg/mL; in data set [2] (setting [11]), 31.3 ± 8.8 µM; in data set [2] (Trypanosoma cruzi, 24 h, read-out: EC90 bloodstream trypomastigotes (Y strain)), 23.3 ± 0.6 µg/mL. Further, the CC50 at 96 h in the data set “in vitro” (mouse) was > 200 µg/mL and > 200 µM. The “LC50 L929 cell lines” value in the data set on L929 cell lines is “not toxic up to the higher tested concentration”. In addition, the CC50 at 24 h in data set [3] was > 750 µg/mL and > 750 µM.
As to `CC(=O)O[C@@H]1CC2C3C[C@H]4O[C@]45[C@@H](O)C=CC(=O)[C@]5(C)C3CC[C@]2(C)[C@@]1(O)[C@H](C)C1CC(C)=C(C)C(=O)O1` (stereo partly shown) [Compound 1, Aurelianolide A], the “SI (Selectivity Index), intracellular forms” value in data set [1] (96 h, µM data) was determined as 9.15. Moreover, the inhibition at 10 µM in data set [1] (setting [12]) was > 90%. The EC50 in data set [1] (setting [13]) was 4.6 ± 1.3 µM; in data set [2] (setting [14]), > 50 µM; in data set [2] (setting [15]) it was 5.68 ± 2.3 µM; in data set [4], 2.3 µM. In data set [2] (24 h, µM data), the “SI (Selectivity Index), bloodstream trypomastigotes” value is 2.9. For the same molecule, in data set [2] (setting [16]), the concentration for an effect of 90% (EC90) stood at 8.33 ± 3.9 µM. Besides, the CC50 at 96 h in “in vitro” (mouse) was determined as 42.1 ± 28.3 µM. This molecule also gave a CC50 at 24 h in data set [3] of 16.4 ± 1.3 µM. Besides, the “selectivity indexes, infected macrophages” value in data set [4] was 5.6. The “activity against promastigotes of L. amazonensis” value in data set [5] is “active”.
With `CC(=O)O[C@@H]1CC2C3CC=C4[C@@H](O)C=CC(=O)[C@]4(C)C3CC[C@]2(C)[C@@]1(O)[C@H](C)C1CC(C)=C(C)C(=O)O1` (stereo partly shown) [Compound 2, Aurelianolide B], the “SI (Selectivity Index), intracellular forms” value in data set [1] (96 h, µM data) amounted to 17.1. In data set [1] (setting [12]), the inhibition at 10 µM is > 90%. The EC50 was 1.6 ± 0.4 µM in data set [1] (setting [13]), > 50 µM in data set [2] (setting [14]), 5.72 ± 1.3 µM in data set [2] (setting [15]) and 6.43 µM in data set [4]. For the same molecule, the “SI (Selectivity Index), bloodstream trypomastigotes” value in data set [2] (24 h, µM data) was 5.4. Also, the EC90 in data set [2] (setting [16]) turned out to be 9.25 ± 3.2 µM. For the same molecule, in the data set “in vitro” (mouse), the CC50 at 96 h was 27.4 ± 1 µM. This molecule also displayed a CC50 at 24 h in data set [3] of 30.9 ± 3.8 µM. Besides, the “selectivity indexes, infected macrophages” value in data set [4] is given as 2.0. For the same molecule, the “activity against promastigotes of L. amazonensis” value in data set [5] is on record as “active”.
On to `C[C@H]1[C@@H](O)CCC2[C@]3(C)CC[C@@]4(C)C5CC(C)(C)CC[C@]5(C)CC[C@]4(C)C3CC[C@@]21C` (stereo partly drawn) [Compound 3, 3 beta-friedelanol], for which the inhibition at 10 µM in data set [1] (setting [12]) was 21 ± 10%.
For `C[C@H]1C(=O)CC[C@@H]2[C@]1(C)CC[C@H]1[C@@]2(C)CC[C@@]2(C)[C@@H]3CC(C)(C)CC[C@]3(C)CC[C@]12C` [Compound 6, Friedelin], the inhibition at 10 µM in data set [1] (setting [12]) worked out at 0%.
Regarding `COc1cc([C@H]2O[C@H](c3cc(OC)c(OC)c(OC)c3)[C@@H](C)[C@@H]2C)cc(OC)c1OC` [Compound 7, (-)-grandisin], in data set [1] (setting [12]), the inhibition at 10 µM worked out at 25 ± 36%.
Regarding `COc1cc(/C=C/C(=O)N2CCC=CC2=O)cc(OC)c1OC` [Compound 8, Piplartine], the “SI (Selectivity Index), intracellular forms” value in data set [1] (96 h, µM data) was found to be 9. Also, the inhibition at 10 µM in data set [1] (setting [7]) was ~50%. In addition, the EC50 in data set [1] (setting [8]) was 8.1 ± 0.9 µM; in data set [2] (setting [9]) it was > 50 µM; in data set [2] (setting [10]), 5.4 µM; in data set [2] (read-out: EC50 bloodstream trypomastigotes, 24 h, Y strain), 5.38 ± 0.3 µM. Besides, in data set [2] (24 h, µM data), the “SI (Selectivity Index), bloodstream trypomastigotes” value is 6.2. Further, in data set [2] (setting [11]), the 90% effect concentration (EC90) was 14.4 ± 5.8 µM. Further, the CC50 at 96 h in “in vitro” (96 h, read-out: LC50 L929 cell lines) turned out to be 73.1 ± 75.5 µM. In data set [3] (24 h, read-out: LC50 cardiac cell cultures), the CC50 at 24 h was determined as 33.1 ± 5.9 µM.
As to `C=CC(C)(O)CCC=C(C)C` (stereo not shown) [linalool], the selectivity index in data set [6] (cell-derived trypomastigotes) was 2.9. The “EC50 against cell-derived trypomastigotes” value in data set [6] is 0.31 µg/mL (≈ 2.01 µM).
In the case of Oleanolic acid [Compound 4], the “% of Infection Reduction” value in data set [1] (10 μM, 96 h of incubation, L929 cell line infected with Tulahuen strain) amounted to 20 ± 18%.

The values above are taken from article PMC8472459, “In Vitro Phenotypic Activity and In Silico Analysis of Natural Products from Brazilian Biodiversity on Trypanosoma cruzi” (Molecules, 2021).
